Measurements taken from paper PMC6159918 (Peptides, 2018).
Read-outs that look alike come from different tables or passages of the source.

Tests used:
human lung-cancer cells = experiment: cells; format: cell-based; conditions: for EC50: Homo sapiens; for [3H]-Thymidine Incorporation (Exp/control): 24 h serum-free
human BRS-3-receptor = biological target: T1, human BRS-3-receptor (Homo sapiens, UniProt P32247); experiment: p42/44 MAPK phosphorylation; format: cell-based; conditions: for EC50: EC50, p42/44 phosphorylation; for P-p42/44 (Exp/control): MK-5046 10 nM, 3 min
T1 sequence (P32247 1-399): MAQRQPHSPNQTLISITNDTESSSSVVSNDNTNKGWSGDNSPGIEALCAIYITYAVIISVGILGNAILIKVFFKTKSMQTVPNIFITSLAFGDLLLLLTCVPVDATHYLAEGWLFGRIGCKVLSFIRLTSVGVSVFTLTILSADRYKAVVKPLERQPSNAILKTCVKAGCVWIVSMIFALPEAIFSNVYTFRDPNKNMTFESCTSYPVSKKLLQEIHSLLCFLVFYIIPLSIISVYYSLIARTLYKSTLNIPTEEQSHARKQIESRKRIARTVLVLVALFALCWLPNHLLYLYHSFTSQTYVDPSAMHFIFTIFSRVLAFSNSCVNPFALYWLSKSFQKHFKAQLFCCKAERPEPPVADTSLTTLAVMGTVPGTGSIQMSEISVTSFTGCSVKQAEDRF

`O[C@@](Cc1nc(CC2(C(F)(F)F)CC2)c[nH]1)(c1ccc(-n2cccn2)cc1)C(F)(F)F` [MK-5046, (2S)-1,1,1-trifluoro-2-[4-(1H-pyrazol-1-yl)phenyl]-3-(4-[[1-(trifluoromethyl)cyclopropyl]methyl]-1H-imidazol-2-yl)propan-2-ol] gave an EC50 (human lung-cancer cells; NCI-H69, read-out: EC50, [3H]-Thymidine-uptake) of 0.27 ± 0.06 nM, an EC50 (human lung-cancer cells; NCI-H358, read-out: EC50, [3H]-Thymidine-uptake) of 0.52 ± 0.07 nM and an EC50 (human lung-cancer cells; NCI-H727, read-out: EC50, [3H]-Thymidine-uptake) of 0.31 ± 0.06 nM. For the same compound, the “[3H]-Thymidine Incorporation (Exp/control)” value (human lung-cancer cells; MK-5046 10 nM, NCI-H69) was 1.36 ± 0.09 Exp/control, the “[3H]-Thymidine Incorporation (Exp/control)” value (human lung-cancer cells; MK-5046 10 nM, NCI-H82) was 1.08 ± 0.08 Exp/control and the “[3H]-Thymidine Incorporation (Exp/control)” value (human lung-cancer cells; MK-5046 10 nM, NCI-H358) was 1.20 ± 0.05 Exp/control. For the same compound, the “[3H]-Thymidine Incorporation (Exp/control)” value (human lung-cancer cells; MK-5046 10 nM, NCI-H460) was 1.29 ± 0.07 Exp/control, the “[3H]-Thymidine Incorporation (Exp/control)” value (human lung-cancer cells; MK-5046 10 nM, NCI-H510) was 1.39 ± 0.04 Exp/control and the “[3H]-Thymidine Incorporation (Exp/control)” value (human lung-cancer cells; MK-5046 10 nM, NCI-H520) was 1.27 ± 0.10 Exp/control. The “[3H]-Thymidine Incorporation (Exp/control)” value (human lung-cancer cells; MK-5046 10 nM, NCI-H720) was 1.15 ± 0.04 Exp/control, the “[3H]-Thymidine Incorporation (Exp/control)” value (human lung-cancer cells; MK-5046 10 nM, NCI-H727) was 1.41 ± 0.18 Exp/control and the “[3H]-Thymidine Incorporation (Exp/control)” value (human lung-cancer cells; MK-5046 10 nM, NCI-H1299 BRS-3-transfected) was 1.41 ± 0.06 Exp/control. For the same compound, the “[3H]-Thymidine Incorporation (Exp/control)” value (human lung-cancer cells; MK-5046 10 nM, NCI-N417) was 1.29 ± 0.08 Exp/control, the “[3H]-Thymidine Incorporation (Exp/control)” value (human lung-cancer cells; MK-5046 1 μM, NCI-H69) was 0.76 ± 0.07 Exp/control and the “[3H]-Thymidine Incorporation (Exp/control)” value (human lung-cancer cells; MK-5046 1 μM, NCI-H82) was 1.17 ± 0.05 Exp/control. The “[3H]-Thymidine Incorporation (Exp/control)” value (human lung-cancer cells; MK-5046 1 μM, NCI-H358) was 1.15 ± 0.06 Exp/control, the “[3H]-Thymidine Incorporation (Exp/control)” value (human lung-cancer cells; MK-5046 1 μM, NCI-H460) was 1.07 ± 0.07 Exp/control and the “[3H]-Thymidine Incorporation (Exp/control)” value (human lung-cancer cells; MK-5046 1 μM, NCI-H510) was 1.36 ± 0.10 Exp/control. For the same compound, the “[3H]-Thymidine Incorporation (Exp/control)” value (human lung-cancer cells; MK-5046 1 μM, NCI-H520) was 1.07 ± 0.14 Exp/control, the “[3H]-Thymidine Incorporation (Exp/control)” value (human lung-cancer cells; MK-5046 1 μM, NCI-H720) was 1.17 ± 0.03 Exp/control and the “[3H]-Thymidine Incorporation (Exp/control)” value (human lung-cancer cells; MK-5046 1 μM, NCI-H727) was 1.47 ± 0.16 Exp/control. The “[3H]-Thymidine Incorporation (Exp/control)” value (human lung-cancer cells; MK-5046 1 μM, NCI-H1299 BRS-3-transfected) was 1.27 ± 0.11 Exp/control, the “[3H]-Thymidine Incorporation (Exp/control)” value (human lung-cancer cells; MK-5046 1 μM, NCI-N417) was 1.26 ± 0.07 Exp/control and the “decrease in [3H]-Thymidine-uptake at supramaximal concentrations” value (human lung-cancer cells; NCI-H69-cells) was 87%. For the same compound, the “decrease in [3H]-Thymidine-uptake at supramaximal concentrations” value (human lung-cancer cells; NCI-H358-cells) was 23%, the “dose-response curve shape, p42/44 phosphorylation” value (human BRS-3-receptor; BRS-3/H1299-transfected-cells) was “monophasic” and the EC50 (human BRS-3-receptor; BRS-3/H1299-cells) was 1.9 ± 0.16 nM. It also gave an EC50 (human BRS-3-receptor; NCI-H69) of 0.12 ± 0.01 nM, an EC50 (human BRS-3-receptor; NCI-H82) of 1.08 ± 0.16 nM and an EC50 (human BRS-3-receptor; NCI-H720) of 1.14 ± 0.57 nM. The EC50 (human BRS-3-receptor; NCI-H727) was 0.02 ± 0.01 nM, the EC50 (human BRS-3-receptor; NCI-N417) was 0.02 ± 0.01 nM and the “P-p42/44 (Exp/control)” value (human BRS-3-receptor; Balb-3T3 BRS-3 transfected) was 1.85 ± 0.21 Exp/control. The “P-p42/44 (Exp/control)” value (human BRS-3-receptor; NCI-H69 (SCLC)) was 1.95 ± 0.18 Exp/control, the “P-p42/44 (Exp/control)” value (human BRS-3-receptor; NCI-H82 (SCLC)) was 1.50 ± 0.10 Exp/control and the “P-p42/44 (Exp/control)” value (human BRS-3-receptor; NCI-H358 (NSCLC)) was 2.33 ± 0.34 Exp/control. For the same compound, the “P-p42/44 (Exp/control)” value (human BRS-3-receptor; NCI-H460 (NSCLC)) was 1.07 ± 0.16 Exp/control, the “P-p42/44 (Exp/control)” value (human BRS-3-receptor; NCI-H510 (SCLC)) was 2.22 ± 0.13 Exp/control and the “P-p42/44 (Exp/control)” value (human BRS-3-receptor; NCI-H520 (NSCLC)) was 1.88 ± 0.24 Exp/control. The “P-p42/44 (Exp/control)” value (human BRS-3-receptor; NCI-H720 (carcinoid)) was 2.53 ± 0.39 Exp/control, the “P-p42/44 (Exp/control)” value (human BRS-3-receptor; NCI-H727 (carcinoid)) was 2.41 ± 0.34 Exp/control and the “P-p42/44 (Exp/control)” value (human BRS-3-receptor; NCI-H1299 BRS-3 transfected) was 1.54 ± 0.28 Exp/control.
